The record followed here is patent publication US8394831B2, “Carbonylamino-derivatives as novel inhibitors of histone deacetylase” (Janssen Pharmaceutica, N.V., priority 2002, dated 2013).

SMILES strings stand for the structures.

Data set [1] deals with histone deacetylase (HeLa nuclear extracts). Description: In vitro assay for inhibition of histone deacetylase. It counts as biochemical. Set-up: key: pIC50 = -log IC50. To be noted: [3H]acetylated histone H4 peptide substrate. On the procedure:
The in vitro assay for inhibition of histone deacetylase (see example C.1) measures the inhibition of HDAC enzymatic activity obtained with the compounds of formula (I).
HeLa nuclear extracts (supplier: Biomol) were incubated at 60 μg/ml with 2×10^−8 M of radiolabeled peptide substrate. As a substrate for measuring HDAC activity a synthetic peptide, i.e. the amino acids 14-21 of histone H4, was used. The substrate is biotinylated at the NH2-terminal part with a 6-aminohexanoic acid spacer, and is protected at the COOH-terminal part by an amide group and specifically [^3H]acetylated at lysine 16. The substrate, biotin-(6-aminohexanoic)Gly-Ala-([^3H]-acetyl-Lys-Arg-His-Arg-Lys-Val-NH2), was added in a buffer containing 25 mM Hepes, 1 M sucrose, 0.1 mg/ml BSA and 0.01% Triton X-100 at pH 7.4. After 30 min the deacetylation reaction was terminated by the addition of HCl and acetic acid. (final concentration 0.035 mM and 3.8 mM respectively). After stopping the reaction, the free ^3H-acetate was extracted with ethylacetate. After mixing and centrifugation, the radioactivity in an aliquot of the upper (organic) phase was counted in a β-counter. For each experiment, controls (containing HeLa nuclear extract and DMSO without compound), a blank incubation (containing DMSO but no HeLa nuclear extract or compound) and samples (containing compound dissolved in DMSO and HeLa nuclear extract) were run in parallel. In first instance, compounds were tested at a concentration of 10^−5M. […] In each test the blank value was subtracted from both the control and the sample values. The control sample represented 100% of substrate deacetylation. For each sample the radioactivity was expressed as a percentage of the mean value of the controls. […] Herein the effects of test compounds are expressed as pIC50 (the negative log value of the IC50-value).

For data set [2], the system named is A2780 ovarian carcinoma cells. The data set is described as follows: Antiproliferative activity on A2780 cells (MTT). It counts as cell-based, human. As to conditions: four days of incubation; for IC50: Homo sapiens, 96 h, read-out: Cellular activity pIC50 (converted). As for the experimental part: Cellular activity of the compounds of formula (I) was determined on A2780 tumour cells using a colorimetric assay for cell toxicity or survival (Mosmann Tim, Journal of Immunological Methods 65: 55-63, 1983)(see example C.2).
All compounds tested were dissolved in DMSO and further dilutions were made in culture medium. Final DMSO concentrations never exceeded 0.1% (v/v) in cell proliferation assays. Controls contained A2780 cells and DMSO without compound and blanks contained DMSO but no cells. MTT was dissolved at 5 mg/ml in PBS. A glycine buffer comprised of 0.1 M glycine and 0.1 M NaCl buffered to pH 10.5 with NaOH (1 N) was prepared (all reagents were from Merck).
The human A2780 ovarian carcinoma cells (a kind gift from Dr. T. C. Hamilton [Fox Chase Cancer Centre, Pennsylvania, USA]) were cultured in RPMI 1640 medium supplemented with 2 mM L-glutamine, 50 μg/ml gentamicin and 10% fetal calf serum. Cells were routinely kept as monolayer cultures at 37° C. in a humidified 5% CO2 atmosphere. Cells were passaged once a week using a trypsin/EDTA solution at a split ratio of 1:40. All media and supplements were obtained from Life Technologies. Cells were free of mycoplasma contamination as determined using the Gen-Probe Mycoplasma Tissue Culture kit (supplier: BioMérieux).
Cells were seeded in NUNC™ 96-well culture plates (Supplier: Life Technologies) and allowed to adhere to the plastic overnight. Densities used for plating were 1500 cells per well in a total volume of 200 μl medium. After cell adhesion to the plates, medium was changed and drugs and/or solvents were added to a final volume of 200 Following four days of incubation, medium was replaced by 200 μl fresh medium and cell density and viability was assessed using an MTT-based assay. To each well, 25 μl MTT solution was added and the cells were further incubated for 2 hours at 37° C. The medium was then carefully aspirated and the blue MTT-formazan product was solubilized by addition of 25 μl glycine buffer followed by 100 μl of DMSO. […] Within an experiment, the results for each experimental condition are the mean of 3 replicate wells. For initial screening purposes, compounds were tested at a single fixed concentration of 10^−6 M. For active compounds, the experiments were repeated to establish full concentration-response curves. For each experiment, controls (containing no drug) and a blank incubation (containing no cells or drugs) were run in parallel. The blank value was subtracted from all control and sample values. For each sample, the mean value for cell growth (in absorbance units) was expressed as a percentage of the mean value for cell growth of the control. […] Herein the effects of test compounds are expressed as pIC50 (the negative log value of the IC50-value).

Data set [3] is described as follows: Kinetic solubility in aqueous media. Type of data set: physicochemical. To be noted: aqueous buffer, kinetic from dmso stock; phosphate citrate buffer pH 7.4, turbidity by nephelometer; read-out: Solubility Score. As for the experimental part:
Kinetic solubility in aqueous media measures the ability of a compound to stay in aqueous solution upon dilution (see example C.3).
DMSO-stock solutions are diluted with a single aqueous buffer solvent in 3 consecutive steps. For every dilution turbidity is measured with a nephelometer.
In the first dilution step, 10 μl of a concentrated stock-solution of the active compound, solubilized in DMSO (5 mM), was added to 100 μl phosphate citrate buffer pH 7.4 and mixed. In the second dilution step, an aliquot (20 μl) of the first dilution step was further dispensed in 100 μl phosphate citrate buffer pH 7.4 and mixed. Finally, in the third dilution step, a sample (20 μl) of the second dilution step was further diluted in 100 μl phosphate citrate buffer pH 7.4 and mixed. All dilutions were performed in 96-well plates Immediately after the last dilution step the turbidity of the three consecutive dilution steps were measured with a nephelometer. Dilution was done in triplicate for each compound to exclude occasional errors. Based on the turbidity measurements a ranking is performed into 3 classes. Compounds with high solubility obtained a score of 3 and for this compounds the first dilution is clear. Compounds with medium solubility obtained a score of 2. For these compounds the first dilution is unclear and the second dilution is clear.

Consider `O=C(NO)c1cnc(N2CCC(CNC(=O)c3ccc4ccccc4c3)CC2)nc1` [Co. No. 3], for which the melting point is 226 °C. Moreover, the “Enzyme activity pIC50” value in data set [1] is given as 8.103. The IC50 in data set [2] was 132 nM. Besides, the solubility in data set [3] was under 75.8 µM.

For `O=C(Cc1c[nH]c2ccccc12)NC1CCN(c2ccc(C(=O)NO)cn2)CC1` [compound 13], the “Enzyme activity pIC50” value in data set [1] turned out to be 7.061. Moreover, in data set [2], the “Cellular activity pIC50” value is under 5.

Take `O=C(NO)c1ccc(N2CCC(NC(=O)c3ccc4ccccc4c3)CC2)cc1` [Co. No. 1]: the “Enzyme activity pIC50” value in data set [1] is reported as 5.649. The IC50 in data set [2] is 4510 nM.

For the compound `Cn1cc(C(=O)NC2CCN(c3ccc(C(=O)NO)cn3)CC2)c2ccccc21` [compound 9], in data set [1], the “Enzyme activity pIC50” value is given as 6.774. Also, the “Cellular activity pIC50” value in data set [2] stood at 5.579.

Turning to `Cn1c(C(=O)NC2CCN(c3ccc(C(=O)NO)cn3)CC2)cc2ccccc21` [compound 7], the “Enzyme activity pIC50” value in data set [1] was determined as 6.416. For the same compound, the “Cellular activity pIC50” value in data set [2] is 5.331.

As to `O=C(NO)c1cnc(N2CC[C@H](O)[C@H](CNS(=O)(=O)c3ccc4ccccc4c3)C2)nc1` [compound 11], the “Enzyme activity pIC50” value in data set [1] came out at 6.215. For the same compound, the “Cellular activity pIC50” value in data set [2] is under 5.

In the case of `COc1cc(C(=O)NC2CCN(c3ccc(C(=O)NO)cn3)CC2)nc2ccccc12` [Co. No. 2], the “Enzyme activity pIC50” value in data set [1] stood at 6.794. For the same compound, the IC50 in data set [2] is 1790 nM. The solubility in data set [3] is over 454 µM.

On to `O=C(NO)c1ccc(N2CCC(NC(=O)c3cc4cc(F)ccc4[nH]3)CC2)nc1` [compound 8], for which, in data set [1], the “Enzyme activity pIC50” value is listed as 6.94. The “Cellular activity pIC50” value in data set [2] was 5.497.

As for `COc1ccc2[nH]c(C(=O)NC3CCN(c4ccc(C(=O)NO)cn4)CC3)cc2c1` [compound 10], in data set [1], the “Enzyme activity pIC50” value is given as 7.19. The “Cellular activity pIC50” value in data set [2] is given as 5.747.

For `O=C(NO)c1ccc(N2CCC(NC(=O)c3ccc4ccccc4c3)CC2)nc1` [compound 5], the “Enzyme activity pIC50” value in data set [1] turned out to be 6.861. The “Cellular activity pIC50” value in data set [2] was 5.664.

As for `O=C(CC(c1ccccc1)c1ccccc1)NC1CCN(c2ccc(C(=O)NO)cn2)CC1` [compound 12], the “Enzyme activity pIC50” value in data set [1] is given as 6.909. Also, the “Cellular activity pIC50” value in data set [2] stood at 5.562.

With `O=C(NO)c1ccc(N2CCC(NC(=O)C3CCc4ccccc43)CC2)nc1` (centres unmarked) [compound 14], the “Enzyme activity pIC50” value in data set [1] worked out at 6.611. In data set [2], the “Cellular activity pIC50” value is given as 5.175.

Take `O=C(NO)c1ccc(N2CCC(NC(=O)c3cc4ccccc4cn3)CC2)nc1` [compound 6]: the “Enzyme activity pIC50” value in data set [1] was found to be 6.951. In addition, in data set [2], the “Cellular activity pIC50” value is 5.86.
